This note sets out measurements from US20120142766A1, “SUBSTITUTED 1,3-DIOXANES AND THEIR USES” (EVOLVA SA, priority 2007, published 2012).

The structures appear in SMILES notation.

This assay concerns the target T1, Thromboxane synthase (Homo sapiens, UniProt P24557).
T1 construct: Human Platelet Thromboxane Synthase Assay; from tissue; host or cells: human platelets
T1 sequence (P24557 1-533): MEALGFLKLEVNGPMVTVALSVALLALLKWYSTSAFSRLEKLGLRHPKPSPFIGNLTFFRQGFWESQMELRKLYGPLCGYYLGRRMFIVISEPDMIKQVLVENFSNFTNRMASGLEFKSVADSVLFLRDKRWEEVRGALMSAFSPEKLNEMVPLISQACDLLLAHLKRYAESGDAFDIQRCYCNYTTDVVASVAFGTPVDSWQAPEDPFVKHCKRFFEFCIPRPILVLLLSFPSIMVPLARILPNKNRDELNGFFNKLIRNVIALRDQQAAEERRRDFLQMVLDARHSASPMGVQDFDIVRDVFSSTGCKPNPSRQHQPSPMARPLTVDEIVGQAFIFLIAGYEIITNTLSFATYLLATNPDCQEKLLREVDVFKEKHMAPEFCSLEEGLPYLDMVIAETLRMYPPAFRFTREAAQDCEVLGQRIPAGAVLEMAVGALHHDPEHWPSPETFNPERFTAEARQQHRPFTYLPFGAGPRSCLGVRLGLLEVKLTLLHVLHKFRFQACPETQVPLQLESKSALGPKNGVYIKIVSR
In words: Human platelet thromboxane synthase assay. The class given is biochemical. The following applies: 10 μM. How it is done:
The compounds were tested for thromboxane synthase inhibition essentially as described by Borsch-Haubold A G, Pasquet S, Watson S P. (1998) Direct inhibition of cyclooxygenase-1 and -2 by the kinase inhibitors SB 203580 and PD 98059. […] 1. Imidazole derivatives. J Med. Chem. (10):1139-48 according to the following:
Pre-incubation time, temp: 15 minutes at 25° C. Incubation time, temp: 3 minutes at 25° C.
Incubation Buffer: 10 mM Tris-HCl, pH 7.4
Quantification Method: EIA quantification of TxB2

With `O=C(O)CC/C=C\C[C@@H]1CO[C@H](c2ccccc2Cl)O[C@@H]1c1ccccc1O` [Compound C, (Z)-6-((2S,4S,5R)-2-(2-chlorophenyl)-4-(2-hydroxyphenyl)-1,3-dioxan-5-yl)hex-4-enoic acid], the “Thromboxane synthase Human platelet Inhibition (%)” value is reported as 61% and at 10 µM the inhibition was 43%.
